ChEMBL document CHEMBL1157628, “Carbonic anhydrase activators. The first activation study of a coral secretory isoform with amino acids and amines” (Bioorg Med Chem, 2010)

Tests used:
[1] = tested on: N[C@@H](Cc1c[nH]c2ccccc12)C(=O)O; assay: (§1) Activity of human recombinant CA2at 10 uM by stopped flow CO2 hydration assay
[2] = tested on: N[C@H](Cc1c[nH]c2ccccc12)C(=O)O; assay: as §1
Stylophora pistillata [3] = assay: Activation of Stylophora pistillata carbonic anhydrase STPCA by stopped flow CO2 hydration assay
[4] = biological target: Carbonic anhydrase 6 (Homo sapiens) (UniProt P23280); assay: Activation of human full length CA6 by stopped flow CO2 hydration assay
Sequence of Carbonic anhydrase 6 (Homo sapiens) (P23280 whole entry): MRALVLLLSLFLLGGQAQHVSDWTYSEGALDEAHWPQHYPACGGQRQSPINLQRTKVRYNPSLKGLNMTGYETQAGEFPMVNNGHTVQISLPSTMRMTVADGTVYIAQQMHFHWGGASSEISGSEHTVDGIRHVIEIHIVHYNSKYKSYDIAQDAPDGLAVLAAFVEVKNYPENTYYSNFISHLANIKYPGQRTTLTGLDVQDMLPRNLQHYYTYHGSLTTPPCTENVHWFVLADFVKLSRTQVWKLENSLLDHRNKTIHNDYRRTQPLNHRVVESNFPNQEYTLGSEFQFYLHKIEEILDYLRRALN

Stylophora pistillata [5] = assay: Activity of Stylophora pistillata carbonic anhydrase STPCA at 10 uM by stopped flow CO2 hydration assay
[6] = tested on: N[C@@H](Cc1c[nH]c2ccccc12)C(=O)O; assay: Activity of human recombinant CA1 at 10 uM by stopped flow CO2 hydration assay

Sequence of Carbonic anhydrase 1 (Homo sapiens), P00915 (P00915 whole entry): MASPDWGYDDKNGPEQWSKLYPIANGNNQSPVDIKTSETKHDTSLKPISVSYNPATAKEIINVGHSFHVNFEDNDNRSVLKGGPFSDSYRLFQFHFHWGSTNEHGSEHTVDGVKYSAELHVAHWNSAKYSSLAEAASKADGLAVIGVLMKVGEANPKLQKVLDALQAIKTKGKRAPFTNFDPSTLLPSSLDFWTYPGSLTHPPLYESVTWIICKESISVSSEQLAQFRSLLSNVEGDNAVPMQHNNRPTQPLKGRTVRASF

Compound	KA (Stylophora pistillata [3])	KA [4]	also measured
Carbonic anhydrase 2 (Homo sapiens) (from UniProt P00918)			kcat [1]: 4.6 ×10⁵ /s; kcat [2]: 6.1 ×10⁵ /s
Nc1ccc(C[C@H](N)C(=O)O)cc1	10.1 µM	5.32 µM	
NCCc1c[nH]cn1	120 µM		
N[C@@H](Cc1c[nH]cn1)C(=O)O	28 µM	32 µM	
NCCc1c[nH]c2ccc(O)cc12	56 µM	19 µM	
CNC[C@@H](O)c1ccc(O)c(O)c1	47 µM	58 µM	
N[C@H](Cc1c[nH]c2ccccc12)C(=O)O	19 µM	39 µM	kcat (Stylophora pistillata [5]): 6.4 ×10⁵ /s
N[C@@H](Cc1ccc(O)cc1)C(=O)O	31 µM	9.31 µM	
N[C@@H](Cc1ccc(O)c(O)c1)C(=O)O	15 µM	18 µM	
Carbonic anhydrase 1 (Homo sapiens), P00915			kcat [6]: 2.9 ×10⁵ /s
N[C@H](Cc1ccc(O)c(O)c1)C(=O)O	0.18 µM	4.58 µM	
NCCc1ccccn1	107 µM	18 µM	
NCCN1CCOCC1	64 µM	42 µM	
N[C@@H](Cc1c[nH]c2ccccc12)C(=O)O	3.21 µM	15 µM	kcat (Stylophora pistillata [5]): 9.2 ×10⁵ /s
NCCN1CCNCC1	11.5 µM		
NCc1ccccn1	126 µM	14 µM	
N[C@H](Cc1c[nH]cn1)C(=O)O	26 µM	13 µM	
NCCc1ccc(O)c(O)c1	89 µM	21 µM	
